What was measured:
[1] = test system: lung cancer cells; test: Local UV irradiation and immunofluorescence (6-4PP repair kinetics, XPA foci); type: cell-based, human; conditions: for XPA foci-positive cells, Pt-PreC vs nonPreC: FIG. 7B
Experimental: Results are presented as mean±SD from three independent experiments. Differences were considered significant at the value of P<0.01 (**). FIGS. 8A to 8D show the upregulation of SIRT1 expression during PreC. […] GAPDH was used as a loading control. […] Histone H3 was used to indicate chromatin-enriched fraction. […] 60 minutes after local UV irradiation the 6-4PP foci-positive cells were counted from randomly selected 1000 cells in each sample. The bars and error bars represent the mean±s.d from three independent experiments. Differences were considered significant at the value of P<0.001 (***). […] After incubation for the recovery times the cells were fixed in 4% paraformaldehyde for 15 min, followed by conventional immunofluorescence staining procedures. UV-induced lesions were counter-labeled with anti-6-4PP antibody, and XPA foci-positive cells were counted for quantitative analysis. The images were captured using Nikon imaging software NIS-Elements 4.0.

[2] = biological target: T1, SIRT1 (Homo sapiens, UniProt Q96EB6); test: XPA loading to chromatin (chromatin-enriched fraction, immunoblotting); conditions: EX527 pretreatment before cisplatin following UV-PreC; FIG. 8B
T1 sequence (Q96EB6 1-747): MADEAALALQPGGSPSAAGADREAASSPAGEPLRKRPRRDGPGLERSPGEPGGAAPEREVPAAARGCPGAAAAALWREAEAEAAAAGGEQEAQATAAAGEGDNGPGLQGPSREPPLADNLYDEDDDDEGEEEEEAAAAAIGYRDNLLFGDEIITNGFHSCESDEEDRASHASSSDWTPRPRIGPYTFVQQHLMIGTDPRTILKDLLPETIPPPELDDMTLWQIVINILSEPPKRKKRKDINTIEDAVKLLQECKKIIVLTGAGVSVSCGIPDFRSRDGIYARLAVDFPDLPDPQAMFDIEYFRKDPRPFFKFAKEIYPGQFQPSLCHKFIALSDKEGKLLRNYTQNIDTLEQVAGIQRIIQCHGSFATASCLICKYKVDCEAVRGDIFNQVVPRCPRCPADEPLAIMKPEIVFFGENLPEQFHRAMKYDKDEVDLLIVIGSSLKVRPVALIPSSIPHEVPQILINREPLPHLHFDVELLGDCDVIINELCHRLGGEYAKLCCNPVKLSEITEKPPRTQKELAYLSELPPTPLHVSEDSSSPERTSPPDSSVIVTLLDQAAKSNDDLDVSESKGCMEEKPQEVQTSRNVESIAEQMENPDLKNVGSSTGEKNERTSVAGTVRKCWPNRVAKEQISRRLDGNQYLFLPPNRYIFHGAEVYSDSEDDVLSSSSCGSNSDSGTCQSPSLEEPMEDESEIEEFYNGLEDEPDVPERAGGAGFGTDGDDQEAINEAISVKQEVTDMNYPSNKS

[3] = biological target: T1, SIRT1; test: XPA acetylation by immunoprecipitation of XPA and immunoblotting with anti-acetyl-lysine antibody; type: cell-based; conditions: UV-PreC cells pretreated with EX527 for 5 h before cisplatin treatment; FIG. 8B
Experimental: PreC cells were pretreated with EX527 for 5 h before cisplatin treatment.
Antibodies used in this study include those against XPA (Kamiya), XPB-XPD (Santa Cruz Biotechnology, Santa Cruz, Calif., USA), XPE, p-p53, p-CHK1, GAPDH, SIRT1, acetyl-lysine (Cell Signaling Technology), XPF, and XPG (both Abcam, Cambridge, UK). For immunoprecipitation of XPA, 1 mg of whole-cell lysate was incubated with 1 μg of anti-XPA conjugated to Protein A/G-agarose beads (Sigma, St. Louis, Mo., USA) for 12 h at 4° C. with rotation. After washing with lysis buffer, proteins were eluted from the beads by boiling in SDS sample buffer and resolved on 10% SDS-polyacrylamide gels. For detection of XPA acetylation, anti-acetyl-lysine was employed.

[4] = test system: lung cancer cells; test: Immunoslot blotting of residual UV-induced CPDs after cisplatin preconditioning; type: cell-based, human; conditions: preconditioning with 5 μM cisplatin; 5 or 10 J/m^2 UV; FIGS. 3B and 3C
Experimental: FIGS. 3A to 3C show the enhanced UV-induced CPD repair activity following Pt-PreC. […] After immunoslot blotting the membrane was counterstained with SYBR-Gold for a loading control of genomic DNA. 5 J/m^2 (FIG. 3B) or 10 J/m^2 (FIG. 3C) of UV-induced CPD repair kinetics were measured from cells conditioned with nonPreC or Pt-PreC.
(§1) A549 and H460 cells (American Type Culture Collection, Manassas, Va., USA) were cultured in Dulbecco's modified Eagle medium supplemented with 10% fetal bovine serum and 1% penicillin-streptomycin. 100% confluent cells were kept for additional four days to completely block cell proliferation and then exposed to the UV light using a germicidal lamp (for immunoslot blotting) or UV crosslinker (for immunofluorescence) emitting primarily UV-C light. A UV-C sensor (UV Products, Upland, Calif., USA) was used to calibrate the fluence rate of the incident light. For immunofluorescence staining, cells were grown on a glass coverslip coated with poly-D-lysine and laminin (BD Biosciences, San Jose, Calif., USA). For assessment of cell viability, CellTiter-Fluor Cell Viability Assay kit (Promega, Madison, Wis., USA) was used as indicated in manufacturer's protocol. Fluorescence plate reader (BIORAD, Hercules, Calif., USA) was used to measure a constitutive protease activity within live cells using a fluorogenic and cell permeable peptide substrate. […]

[5] = test system: 6-4PP-containing DNA substrate; test: Dual-incision NER activity assay with lysate of Pt-PreC cells; type: cell-based, human; conditions: FIG. 5
Experimental: Dual-incision NER activity assay was performed using isotope-labeled and 6-4PP-containing linear substrate DNA and cell lysates obtained from nonPreC and Pt-PreC cells at the indicated times after PreC. Amount of excision product was used as a measure of the NER capacity of the lysate. Results are presented as mean±SD from three independent experiments. Differences were considered significant at the values of P<0.01 (**) and P<0.001 (***). Assay of NER activity in the cell lysate toward 6-4PP-containing DNA substrate was carried out. Briefly, 10 fmol of 140-bp duplex with a 6-4PP in the center and ^32P-label at the 5th phosphodiester bond 5′ to the site of the lesion was incubated with 70 μg of lysate in 25 μL of excision buffer at 30° C. for 1 h. The amount of excision product was used as a measure of NER capacity in the lysate. The 6-4PP-containing linear duplex substrate DNA and NER-competent cell lysate were prepared.

[6] = test system: lung cancer cells; test: Immunoslot blotting of Pt-GpG adduct removal after cisplatin preconditioning; type: cell-based, human
Experimental: as §1, with “FIGS. 4A and 4B show the enhanced Pt-GpG diadduct removal by Pt-PreC. […] The bars and error bars represent the mean±s.d from three independent experiments. A549” for “A549”

Which results are given for NC(=O)C1CCCc2c1[nH]c1ccc(Cl)cc21 (stereo not drawn) [EX527, 6-chloro-2,3,4,9-tetrahydro-1H-carbazole-1-carboxamide]?
effect on PreC-induced repair capacity (6-4PP repair kinetics) ([1]; 1 μM EX-527 for 5 h before local UV irradiation, 6-4PP foci-positive cells counted 60 min after UV, FIG. 8C): compromised by SIRT1 inhibition; effect on UV-PreC-induced enhancement of XPA chromatin loading [2]: reduced in the presence of EX527; effect on the UV-PreC-induced decrease in acetylation level of XPA [3]: immediately reversed

How did the “kinetics of CPD repair after the same dose of UV, preconditioned vs nonPreC” value [4] turn out when N.N.[Cl][Pt][Cl] [cisplatin] was run?
Its value is “much faster”.

And the “6-4PP removal, Pt-PreC vs nonPreC control” value ([1]; 200 J/m^2 local UV irradiation, FIG. 7A)?
Its value is “accelerated the 6-4PP removal”.

What about the “XPA foci-positive cells, Pt-PreC vs nonPreC” value ([1]; 60 min after UV exposure) of the same compound?
The value was “approximately 3 times less”.

What about the “XPA foci-positive cells, Pt-PreC vs nonPreC” value ([1]; within 30 min of recovery time) of the same compound?
The value was “no difference”.

And the “time after PreC at which NER activity peaked” value [5]?
Its value is 48 h.

And the “time after PreC at which NER activity started to increase” value [5]?
The value was 12 h.

What about the “time after PreC at which enhancement of NER capacity was no longer detected” value [5] of the same compound?
The value was 72 h.

What about the “remaining Pt-GpG adduct after Pt-PreC” value ([6]; 48 h after Pt-PreC with 5 μM of cisplatin, FIG. 4A) of the same compound?
Its value is “no remaining Pt-GpG adduct”.

What about the “Pt-GpG repair kinetics upon following cisplatin treatment, Pt-PreC vs nonPreC” value ([6]; Pt-PreC 5 μM, then 10 μM cisplatin, FIG. 4B) of the same compound?
The value was “much faster”.

Reference: patent publication US20190079075A1, “PHARMECEUTICAL COMPOSITION FOR LUNG CANCER TREATMENT AND METHODS FOR PROVIDING INFORMATION AND SCREENING” (DONG-A UNIVERSITY RESEARCH FOUNDATION FOR INDUSTRY-ACADEMY …, priority 2015, published 2019)
